Experimental data: ChEMBL document CHEMBL1909046, “DrugMatrix in vitro pharmacology data”

Columns and labels:
[1] = target: Beta-1 adrenergic receptor (Homo sapiens, UniProt P08588); assay: DRUGMATRIX: Adrenergic beta1 radioligand binding (ligand: [125I] Cyanopindolol); type: cell membranes, CHO-K1, Membrane; conditions: cho-k1; Not Active = under 50% inhibition at 10 µM
[2] = DRUGMATRIX: ATPase, Na+/K+ enzyme inhibition (substrate: ATP); type: tissue-based, Sus scrofa, Heart; conditions: Not Active = under 50% inhibition at 10 µM
B2 bradykinin receptor = target: T1, B2 bradykinin receptor (Homo sapiens, UniProt P30411); type: cell membranes, Membrane; conditions: chem-1; further: in other assays of this panel Not Active means under 50% inhibition at 10 µM
T1 sequence (P30411 whole entry): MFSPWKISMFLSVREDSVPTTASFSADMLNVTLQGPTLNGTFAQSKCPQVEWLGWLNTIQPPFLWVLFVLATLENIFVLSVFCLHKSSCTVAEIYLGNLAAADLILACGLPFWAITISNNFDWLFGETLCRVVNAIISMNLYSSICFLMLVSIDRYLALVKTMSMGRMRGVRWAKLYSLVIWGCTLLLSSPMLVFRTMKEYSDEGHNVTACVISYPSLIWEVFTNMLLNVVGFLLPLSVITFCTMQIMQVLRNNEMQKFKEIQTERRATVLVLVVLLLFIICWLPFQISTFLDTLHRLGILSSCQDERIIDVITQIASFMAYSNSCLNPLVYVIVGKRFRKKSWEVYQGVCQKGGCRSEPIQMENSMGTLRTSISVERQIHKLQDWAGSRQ

Carbonic anhydrase 2 = Carbonic anhydrase 2 (Homo sapiens, UniProt P00918); assay: DRUGMATRIX: Carbonic Anhydrase II enzyme inhibition (substrate: 4-Nitrophenyl acetate (4-NPA)); type: tissue-based, Erythrocyte; conditions: erythrocyte; Not Active = under 50% inhibition at 10 µM
[3] = target: C-C chemokine receptor type 5 (Homo sapiens, UniProt P51681); type: cell membranes, HEK293, Membrane; conditions: hek293; further: in other assays of this panel Not Active means under 50% inhibition at 10 µM
[4] = target: T2, 3-hydroxy-3-methylglutaryl-coenzyme A reductase (Homo sapiens, UniProt P04035); parameters: species or system Escherichia coli;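 further: enzyme inhibition assay of HMG-CoA reductase using radiolabeled [14C]HMG-CoA as substrate; in other assays of this panel Not Active means under 50% inhibition at 10 µM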
T2 sequence (P04035 whole entry): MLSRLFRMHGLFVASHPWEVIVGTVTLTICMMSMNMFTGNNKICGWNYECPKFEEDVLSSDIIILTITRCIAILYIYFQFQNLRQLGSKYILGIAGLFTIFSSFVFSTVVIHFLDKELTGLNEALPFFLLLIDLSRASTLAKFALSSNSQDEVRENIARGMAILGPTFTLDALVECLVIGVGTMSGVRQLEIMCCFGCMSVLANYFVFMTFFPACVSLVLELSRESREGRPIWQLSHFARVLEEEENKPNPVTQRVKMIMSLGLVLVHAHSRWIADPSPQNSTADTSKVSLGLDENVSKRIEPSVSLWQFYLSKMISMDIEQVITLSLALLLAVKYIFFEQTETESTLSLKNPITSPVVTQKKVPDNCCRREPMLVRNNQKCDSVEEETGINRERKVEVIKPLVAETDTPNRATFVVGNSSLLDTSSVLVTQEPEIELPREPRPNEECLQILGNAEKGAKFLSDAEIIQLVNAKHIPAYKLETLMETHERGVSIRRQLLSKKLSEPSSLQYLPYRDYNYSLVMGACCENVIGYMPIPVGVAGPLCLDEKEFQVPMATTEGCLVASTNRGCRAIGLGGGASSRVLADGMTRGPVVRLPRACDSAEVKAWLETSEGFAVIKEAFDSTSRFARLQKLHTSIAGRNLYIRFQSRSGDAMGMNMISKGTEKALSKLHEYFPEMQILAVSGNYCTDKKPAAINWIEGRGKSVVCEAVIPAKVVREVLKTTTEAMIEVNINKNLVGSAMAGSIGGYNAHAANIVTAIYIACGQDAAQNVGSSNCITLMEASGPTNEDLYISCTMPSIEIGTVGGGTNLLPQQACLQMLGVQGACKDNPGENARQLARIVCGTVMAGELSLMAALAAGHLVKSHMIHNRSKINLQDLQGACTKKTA

[5] = target: Protein phosphatase 3 catalytic subunit alpha (Homo sapiens, UniProt Q08209); parameters: species or system Escherichia coli;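 further: inhibition of calcineurin (PP2B) enzyme activity, measured with DiFMUP as the substrate; in other assays of this panel Not Active means under 50% inhibition at 10 µM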

Chain of C-C chemokine receptor type 5 (P51681 whole entry): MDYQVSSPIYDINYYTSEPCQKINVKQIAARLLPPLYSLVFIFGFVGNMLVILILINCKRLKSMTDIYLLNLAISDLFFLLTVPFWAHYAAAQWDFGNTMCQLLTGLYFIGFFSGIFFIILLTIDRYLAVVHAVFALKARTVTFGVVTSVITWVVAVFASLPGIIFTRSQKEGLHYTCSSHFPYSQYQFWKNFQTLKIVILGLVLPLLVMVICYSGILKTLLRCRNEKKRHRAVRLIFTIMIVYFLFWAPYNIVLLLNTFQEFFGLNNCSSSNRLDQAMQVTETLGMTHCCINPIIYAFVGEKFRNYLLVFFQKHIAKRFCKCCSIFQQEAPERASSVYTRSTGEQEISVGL
Chain of Beta-1 adrenergic receptor (P08588 whole entry): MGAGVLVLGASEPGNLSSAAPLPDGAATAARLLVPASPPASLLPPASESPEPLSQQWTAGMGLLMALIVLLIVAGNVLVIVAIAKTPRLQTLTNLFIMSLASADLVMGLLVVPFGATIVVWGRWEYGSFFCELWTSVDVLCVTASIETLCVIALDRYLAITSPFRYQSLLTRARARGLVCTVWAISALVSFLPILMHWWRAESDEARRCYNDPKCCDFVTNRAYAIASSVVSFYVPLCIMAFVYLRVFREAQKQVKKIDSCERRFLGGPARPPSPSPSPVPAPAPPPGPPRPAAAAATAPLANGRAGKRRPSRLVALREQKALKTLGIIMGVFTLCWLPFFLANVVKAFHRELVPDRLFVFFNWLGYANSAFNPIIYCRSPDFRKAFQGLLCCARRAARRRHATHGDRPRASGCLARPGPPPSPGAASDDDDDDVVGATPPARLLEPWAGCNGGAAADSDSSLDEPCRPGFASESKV

Molecule	IC50 [1]	IC50 [2]	Ki [2]	IC50 (B2 bradykinin receptor)	IC50 (Carbonic anhydrase 2)	IC50 [3]	IC50 [4]	IC50 [5]	Ki [1]	Ki (B2 bradykinin receptor)	Ki (Carbonic anhydrase 2)	Ki [3]	Ki [4]	Ki [5]	IC50 ([2]; read-out: IC50)	IC50 ([4]; read-out: IC50)
CN1C[C@H](CNC(=O)OCc2ccccc2)C[C@@H]2c3cccc4c3c(cn4C)C[C@H]21 [METERGOLINE]	Not Active	Not Active	Not Active	Not Active	Not Active	Not Active	Not Active	Not Active								
O=[As][O-].[Na+] [SODIUM ARSENITE]	Not Active	Not Active	Not Active	Not Active	Not Active	Not Active	Not Active	Not Active								
CC(=O)O[C@]1(C(C)=O)CC[C@H]2[C@@H]3C[C@H](C)C4=CC(=O)CC[C@]4(C)[C@H]3CC[C@@]21C [MEDROXYPROGESTERONE ACETATE]	Not Active	Not Active	Not Active	Not Active	Not Active	Not Active	Not Active	Not Active								
CC(O)C(=O)O (centres undefined) [LACTIC ACID]	Not Active	Not Active	Not Active	Not Active	Not Active	Not Active	Not Active	Not Active								
CC(Cl)(Cl)Cl [TRICHLOROETHANE]	Not Active	Not Active	Not Active	Not Active	Not Active	Not Active	Not Active	Not Active								
CCN(CC)N=O [N-NITROSODIETHYLAMINE]	Not Active	Not Active	Not Active	Not Active	Not Active	Not Active	Not Active	Not Active								
CC#C[C@]1(O)CC[C@H]2[C@@H]3CCC4=CC(=O)CCC4=C3[C@@H](c3ccc(N(C)C)cc3)C[C@@]21C [MIFEPRISTONE]	Not Active	Not Active	Not Active	Not Active	Not Active	Not Active	Not Active	Not Active								
LEAD(IV) ACETATE	Not Active	Not Active	Not Active	Not Active	Not Active	Not Active	Not Active	Not Active	Not Active	Not Active	Not Active	Not Active	Not Active	Not Active		
O=C(OC[C@H]1O[C@@H](OC(=O)c2cc(O)c(O)c(OC(=O)c3cc(O)c(O)c(O)c3)c2)[C@H](OC(=O)c2cc(O)c(O)c(OC(=O)c3cc(O)c(O)c(O)c3)c2)[C@@H](OC(=O)c2cc(O)c(O)c(OC(=O)c3cc(O)c(O)c(O)c3)c2)[C@@H]1OC(=O)c1cc(O)c(O)c(OC(=O)c2cc(O)c(O)c(O)c2)c1)c1cc(O)c(O)c(OC(=O)c2cc(O)c(O)c(O)c2)c1 [TANNIC ACID]	Not Active			Not Active	Not Active	Not Active		Not Active							1340 nM	3130 nM
Oc1ccc(/C=C/c2cc(O)cc(O)c2)cc1 [RESVERATROL]	Not Active	Not Active	Not Active	Not Active	Not Active	Not Active	Not Active	Not Active								
CC[C@@]1(O)C(=O)OCc2c1cc1n(c2=O)Cc2cc3c(CN(C)C)c(O)ccc3nc2-1 [TOPOTECAN]	Not Active	Not Active	Not Active	Not Active	Not Active	Not Active	Not Active	Not Active								
C=CCc1ccc2c(c1)OCO2 [SAFROLE]	Not Active	Not Active	Not Active	Not Active	Not Active	Not Active	Not Active	Not Active								
C1CCN2C[C@@H]3C[C@@H](CN4CCCC[C@@H]34)[C@H]2C1 [SPARTEINE]	Not Active	Not Active	Not Active	Not Active	Not Active	Not Active	Not Active	Not Active								
CC[C@H](C)C(=O)O[C@H]1CCC=C2C=C[C@H](C)[C@H](CC[C@@H]3C[C@@H](O)CC(=O)O3)[C@H]21 [MEVASTATIN]	Not Active	Not Active	Not Active	Not Active	Not Active	Not Active		Not Active								119 nM
CS(=O)(=O)c1ccc(C2=C(c3ccccc3)C(=O)OC2)cc1 [ROFECOXIB]	Not Active	Not Active	Not Active	Not Active	Not Active	Not Active	Not Active	Not Active								
Cc1cn([C@H]2C=C[C@@H](CO)O2)c(=O)[nH]c1=O [STAVUDINE]	Not Active	Not Active	Not Active	Not Active	Not Active	Not Active	Not Active	Not Active								
Nc1nc(N)c2nc(-c3ccccc3)c(N)nc2n1	Not Active	Not Active	Not Active	Not Active	Not Active	Not Active	Not Active	Not Active								
Cc1[nH]c(=O)c(C#N)cc1-c1ccncc1 [MILRINONE]	Not Active	Not Active	Not Active	Not Active	Not Active	Not Active	Not Active	Not Active								
C[C@]12CCC(=O)C[C@@H]1CC[C@@H]1[C@@H]2CC[C@]2(C)[C@@H](O)CC[C@@H]12 [STANOLONE]	Not Active	Not Active	Not Active	Not Active	Not Active	Not Active	Not Active	Not Active								
CC1(C)[C@H](C(=O)O)N2C(=O)C[C@H]2S1(=O)=O [SULBACTAM]	Not Active	Not Active	Not Active	Not Active	Not Active	Not Active	Not Active	Not Active								
CCOC(=O)C1=C(C)NC(C)=C(C(=O)OCC)C1c1ccccc1/C=C/C(=O)OC(C)(C)C [LACIDIPINE]	Not Active	Not Active	Not Active	Not Active	Not Active	Not Active	Not Active	Not Active								
CC(N)C12CC3CC(CC(C3)C1)C2 (centres undefined) [RIMANTADINE]	Not Active	Not Active	Not Active	Not Active	Not Active	Not Active	Not Active	Not Active								
CO[C@@]12[C@H](COC(N)=O)C3=C(C(=O)C(C)=C(N)C3=O)N1C[C@@H]1N[C@@H]12 [MITOMYCIN]	Not Active	Not Active	Not Active	Not Active	Not Active	Not Active	Not Active	Not Active								
